Literature values as cited in US20090197941A1, “Pharmaceutical Compositons for the Treatment of Chronic Obstructive Pulmonary Disease” (priority 2005, published 2009).

How the values were obtained:
U87 human glioma cells = settings: increasing concentrations of CBD, Boyden chamber, read-out: IC50 of tumour cell migration
CB2 receptors = CB2 receptors (Homo sapiens, UniProt P34972); settings: known in the art
CB1 receptors = CB1 receptors (Homo sapiens, UniProt P21554); settings: known in the art
Chain of CB1 receptors (P21554 whole entry): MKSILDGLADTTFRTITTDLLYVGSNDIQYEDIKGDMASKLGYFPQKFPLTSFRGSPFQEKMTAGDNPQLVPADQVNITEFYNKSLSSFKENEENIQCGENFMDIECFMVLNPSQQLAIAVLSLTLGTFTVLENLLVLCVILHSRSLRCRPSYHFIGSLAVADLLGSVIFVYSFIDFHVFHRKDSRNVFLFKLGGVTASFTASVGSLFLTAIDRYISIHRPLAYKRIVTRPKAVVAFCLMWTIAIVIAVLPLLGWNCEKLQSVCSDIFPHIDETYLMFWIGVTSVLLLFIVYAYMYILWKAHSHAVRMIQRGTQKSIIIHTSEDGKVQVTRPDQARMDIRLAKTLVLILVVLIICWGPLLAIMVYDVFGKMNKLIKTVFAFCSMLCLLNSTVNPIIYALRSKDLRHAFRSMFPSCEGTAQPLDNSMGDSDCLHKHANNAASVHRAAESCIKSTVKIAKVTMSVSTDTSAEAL

Chain of CB2 receptors (P34972 whole entry): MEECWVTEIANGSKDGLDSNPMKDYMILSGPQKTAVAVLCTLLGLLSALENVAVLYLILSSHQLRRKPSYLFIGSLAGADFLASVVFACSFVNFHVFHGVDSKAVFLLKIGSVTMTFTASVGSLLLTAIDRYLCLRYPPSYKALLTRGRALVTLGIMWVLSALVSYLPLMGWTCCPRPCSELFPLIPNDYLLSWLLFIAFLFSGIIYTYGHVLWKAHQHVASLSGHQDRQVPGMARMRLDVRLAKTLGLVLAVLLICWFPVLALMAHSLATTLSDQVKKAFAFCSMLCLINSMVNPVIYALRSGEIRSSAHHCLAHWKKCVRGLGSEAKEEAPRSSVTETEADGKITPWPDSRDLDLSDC

C=C(C)[C@@H]1CCC(C)=C[C@H]1c1c(O)cc(CCCCC)cc1O [CBD, cannabidiol]
IC50 (U87 human glioma cells): 5.05 ± 1.1 µM | action at CB2 receptors (CB2 receptors): not to act | action at CB1 receptors (CB1 receptors): only very weakly
